# Target: T1, Tyrosine-protein kinase ITK/TSK (Homo sapiens, UniProt Q08881)
# T1 sequence (Q08881 whole entry): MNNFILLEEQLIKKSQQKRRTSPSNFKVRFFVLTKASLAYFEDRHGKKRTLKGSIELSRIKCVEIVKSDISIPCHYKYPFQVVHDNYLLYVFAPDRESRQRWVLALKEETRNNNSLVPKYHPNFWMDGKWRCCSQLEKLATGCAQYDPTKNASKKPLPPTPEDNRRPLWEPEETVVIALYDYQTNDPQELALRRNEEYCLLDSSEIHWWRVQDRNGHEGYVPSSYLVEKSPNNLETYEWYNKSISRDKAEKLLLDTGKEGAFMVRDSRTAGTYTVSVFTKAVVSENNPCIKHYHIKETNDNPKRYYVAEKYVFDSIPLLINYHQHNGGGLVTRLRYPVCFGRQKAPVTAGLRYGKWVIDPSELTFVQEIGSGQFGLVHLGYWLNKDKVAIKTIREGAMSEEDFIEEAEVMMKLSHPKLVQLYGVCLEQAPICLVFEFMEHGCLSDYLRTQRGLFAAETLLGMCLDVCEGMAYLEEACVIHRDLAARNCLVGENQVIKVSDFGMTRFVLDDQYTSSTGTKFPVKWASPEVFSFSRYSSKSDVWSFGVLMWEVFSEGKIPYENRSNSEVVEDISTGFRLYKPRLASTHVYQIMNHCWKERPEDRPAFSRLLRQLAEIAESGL
# Test: Biochemical Inhibition Assay: 1H-pyrrolo[2,3-b]pyridine, 1H-pyrazolo[3,4-b]pyridine and 5H-pyrrolo[2,3-b]pyrazine series of compounds exhibited over >100 fold selective against Janus and TEC family of kinases except for the BMX and TXK it had activity of 30 and 45 nM respectively.
row,Structure (SMILES),IC50
1,C=CC(=O)Nc1cccc(-c2cnc3[nH]cc(C)c3c2)c1,in the range around 35 nM
2,C=CC(=O)Nc1cccc(-c2cnc3[nH]cc(-c4cccc(C)c4F)c3c2)c1,in the range around 72.4 nM
3,C=CC(=O)Nc1cccc(-c2cnc3[nH]cc(-c4cccc(S(=O)(=O)N(CC)CC)c4)c3c2)c1,in the range around 35 nM

# Further lines, results first:
row,IC50,Structure (SMILES)
1,in the range around 35 nM,C=CC(=O)Nc1cccc(-c2cnc3[nH]cc(Cl)c3c2)c1
2,in the range around 35 nM,C=CC(=O)Nc1cccc(-c2cnc3[nH]cc(-c4cc5ccccc5[nH]4)c3n2)c1

# From ChEMBL document CHEMBL3886406, “Substituted pyrrolo[2,3-b]pyridines as ITK and JAK inhibitors” (2015)
